Data as given in patent US20050260126A1 (priority 2002, published 2005).

What was measured:
[1] = system: abnormal prion proteins in ScN2a cells with persistent infection of scrapie; assay: cells; type: cell-based, mouse; details: for IC50: Mus musculus, ScN2a, 96 h, read-out: Inhibitory effects on producing abnormal prion protein IC50; for Inhibitory effects on producing abnormal prion proteins (in words): ScN2a cells
[2] = system: ScN2a cells; details: for Concentration of inhibiting cell proliferation TC: mouse
[3] = in vivo; details: male, Crj:CD1, mouse, iv
[4] = Slc:ICR, mouse, not told, iv

| SMILES | IC50 [1] | Concentration of inhibiting cell proliferation TC [2] | MTD [3] | Permeability into the brain: content in Brain [4] | Permeability into the brain: content in Plasma [4] | Inhibitory effects on producing abnormal prion proteins (in words) [1] | TC and safety concentration margin (in words) [2] |
| --- | --- | --- | --- | --- | --- | --- | --- |
| CNc1ccc(/C=C/C=C/c2nc3ccccc3s2)cc1 [BF-187, 2-[[4-(4-methylamino)-phenyl]-1,3-butadienyl]-benzothiazole] | 10 nM | 10 µM | ≥ 10 mg/kg | 3.6 % ID/g or ml | 1.3 % ID/g or ml |  |  |
| CN(C)c1ccc(/C=C/c2nc3ccccc3s2)c(O)c1 [BF-192, 2-[2-(2-hydroxy-4-dimethylaminophenyl)ethenyl]benzothiazole] | 1.6 nM | >10 µM | ≥ 10 mg/kg | 5.5 % ID/g or ml | 2.6 % ID/g or ml |  |  |
| CNc1ccc(/C=C/c2ccc3ccccc3n2)cc1 [BF-178, 2-[2-(4-methylaminophenyl)ethenyl]quinoline] | 1000 nM | 100 µM | ≥ 10 mg/kg | 6.3 % ID/g or ml | 4.5 % ID/g or ml |  |  |
| CNc1ccc(/C=C/C=C/c2nc3ccccc3o2)cc1 [BF-185, 2-[[4-(4-methylamino)-phenyl]-1,3-butadienyl]-benzoxazole] |  |  | ≥ 10 mg/kg | 3.9 % ID/g or ml | 1.0 % ID/g or ml |  |  |
| CNc1ccc(-c2nc3ccc(O)cc3s2)cc1 [BF-172, 2-(4-methylamino)-phenyl-6-hydroxybenzo thiazole] | 1.6 nM | >10 µM | ≥ 10 mg/kg | 4.9 % ID/g or ml | 2.9 % ID/g or ml |  |  |
| CNc1ccc(/C=C/c2nc3cc(I)ccc3o2)cc1 [BF-180, 2-(4-methylamino)-styryl-5-iodobenzoxazole] | 10 nM | 100 µM | ≥ 10 mg/kg | 2.4 % ID/g or ml | 1.2 % ID/g or ml |  |  |
| Nc1ccc(/C=C/c2ccc3ccccc3n2)cc1 [BF-177, 2-[2-(4-aminophenyl)ethenyl]quinoline] |  |  | ≥ 10 mg/kg | 8.2 % ID/g or ml | 1.6 % ID/g or ml |  |  |
| C(=C\c1nc2ccccc2[nH]1)/c1ccccc1 [Compound N-491, 2-styrylbenzimidazole] | 10 nM | 100 µM | ≥ 10 mg/kg | 7.4 % ID/g or ml | 2.3 % ID/g or ml |  |  |
| Nc1ccc(/C=C/c2nc3cc(F)ccc3o2)cc1 [BF-140, 2-(4-amino)styryl-5-fluorobenzoxazole] | 5 nM | 50 µM | ≥ 10 mg/kg | 5.5 % ID/g or ml | 1.1 % ID/g or ml |  |  |
| CNc1ccc(C=Cc2ccc3ccccc3n2)c(O)c1 [BF-198, 2-[2-(2-hydroxyl-4-methylaminophenyl)-ethenyl]quinoline] | 0.8 nM | 10 µM | ≥ 10 mg/kg | 9.9 % ID/g or ml | 4.7 % ID/g or ml |  |  |
| Cc1nc(/C=C/c2cnc(N(C)C)s2)oc1C [BF-214, 2-(dimethylamino)-5-[2-(4,5-dimethyloxazol-2-yl)ethenyl]thiazole] |  |  | ≥ 10 mg/kg | 9.0 % ID/g or ml | 2.1 % ID/g or ml |  |  |
| Cc1nc(/C=C/c2ccc(N(C)C)cc2)oc1C [BF-137, 2-[2-(4-dimethylamino-phenyl)ethenyl]-4-5-dimethyloxazole] | 100 nM | 100 µM | ≥ 10 mg/kg | 6.5 % ID/g or ml | 2.9 % ID/g or ml |  |  |
| Clc1ccc(/C=C/c2nc3ccccc3[nH]2)cc1 [Compound N-457, 2-[2-(4-chlorophenyl)ethenyl]benzimidazole] | 1 nM | 100 µM | ≥ 10 mg/kg | 7.1 % ID/g or ml | 2.8 % ID/g or ml | highly inhibitory effects | higher TCs, therefore higher safety concentration margins |
| CNc1ccc(/C=C/C=C/c2nc3ccccc3[nH]2)cc1 [BF-188, 2-[[4-(4-methylamino)-phenyl]-1,3-butadienyl]-benzimidazole] |  |  | ≥ 10 mg/kg | 4.8 % ID/g or ml | 1.7 % ID/g or ml |  |  |
| CN(C)c1ccc(/C=C/c2ccc3ccccc3n2)c(O)c1 [BF-193, 2-[2-(2-hydroxy-4-dimethylaminophenyl)ethenyl]quinoline] | 1.6 nM | 10 µM | ≥ 10 mg/kg | 5.2 % ID/g or ml | 2.7 % ID/g or ml |  |  |
| CN(C)c1cnc(/C=C/c2nc3ccccc3o2)o1 [BF-215, 2-[2-(5-dimethylamino-oxazol-2-yl)-ethenyl]-benzoxazole] |  |  | ≥ 10 mg/kg | 8.8 % ID/g or ml | 2.5 % ID/g or ml |  |  |
| CNc1ccc(/C=C/C=C/C=C/c2ccc3ccccc3n2)cc1 [BF-189, 1-(4-methylamino-phenyl)-6-(2-quinolyl)-1,3,5-hexatriene] | 100 nM | 100 µM | ≥ 10 mg/kg |  |  |  |  |
| CNc1ccc(C=Cc2ccc3cc(I)ccc3n2)c(O)c1 [BF-199, 2-[2-(2-hydroxyl-4-methylaminophenyl)-ethenyl]-6-iodoquinoline] | 0.8 nM | >10 µM | ≥ 10 mg/kg |  |  |  |  |
| CN(C)c1ccc2cc(-c3nc4cc(F)ccc4[nH]3)ccc2c1 [BF-153, 5-fluoro-2-(6-dimethyl-aminonaphthalen-2-yl)benzimidazole] | 1 nM | 10 µM | 3 to 10 mg/kg |  |  | highly inhibitory effects |  |
